Assay results reported in patent EP4578856A1, “HETEROCYCLIC COMPOUND” (Ubience Inc., priority 2022, dated 2024).

Biological target: ROCK2 protein (Homo sapiens, UniProt O75116)
Test: Degradation inducing activity of ROCK2 protein in HUVEC cells, Western blotting (Simple Western JESS)
Format: cell-based
Set-up: endogenous in cells; host or cells: HUVEC (ATCC CRL-1730)
Details: HUVEC, 24 h; for inhibition at 1 µM: degradation rate at 1 µM; for inhibition at 10 µM: degradation rate at 10 µM
Outline: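 HUVEC cells treated 24 h with compound at 10 µM or 1 µM, then lysed; ROCK2 quantified by capillary Western (Simple Western JESS) using rabbit mAb D1B1, normalized to total loaded protein. Degradation rate (%) calculated relative to DMSO control set at 100%, binned A ≥75%, B 50–75%, C 25–50%, D <25%.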

Sequence of ROCK2 protein (O75116 whole entry): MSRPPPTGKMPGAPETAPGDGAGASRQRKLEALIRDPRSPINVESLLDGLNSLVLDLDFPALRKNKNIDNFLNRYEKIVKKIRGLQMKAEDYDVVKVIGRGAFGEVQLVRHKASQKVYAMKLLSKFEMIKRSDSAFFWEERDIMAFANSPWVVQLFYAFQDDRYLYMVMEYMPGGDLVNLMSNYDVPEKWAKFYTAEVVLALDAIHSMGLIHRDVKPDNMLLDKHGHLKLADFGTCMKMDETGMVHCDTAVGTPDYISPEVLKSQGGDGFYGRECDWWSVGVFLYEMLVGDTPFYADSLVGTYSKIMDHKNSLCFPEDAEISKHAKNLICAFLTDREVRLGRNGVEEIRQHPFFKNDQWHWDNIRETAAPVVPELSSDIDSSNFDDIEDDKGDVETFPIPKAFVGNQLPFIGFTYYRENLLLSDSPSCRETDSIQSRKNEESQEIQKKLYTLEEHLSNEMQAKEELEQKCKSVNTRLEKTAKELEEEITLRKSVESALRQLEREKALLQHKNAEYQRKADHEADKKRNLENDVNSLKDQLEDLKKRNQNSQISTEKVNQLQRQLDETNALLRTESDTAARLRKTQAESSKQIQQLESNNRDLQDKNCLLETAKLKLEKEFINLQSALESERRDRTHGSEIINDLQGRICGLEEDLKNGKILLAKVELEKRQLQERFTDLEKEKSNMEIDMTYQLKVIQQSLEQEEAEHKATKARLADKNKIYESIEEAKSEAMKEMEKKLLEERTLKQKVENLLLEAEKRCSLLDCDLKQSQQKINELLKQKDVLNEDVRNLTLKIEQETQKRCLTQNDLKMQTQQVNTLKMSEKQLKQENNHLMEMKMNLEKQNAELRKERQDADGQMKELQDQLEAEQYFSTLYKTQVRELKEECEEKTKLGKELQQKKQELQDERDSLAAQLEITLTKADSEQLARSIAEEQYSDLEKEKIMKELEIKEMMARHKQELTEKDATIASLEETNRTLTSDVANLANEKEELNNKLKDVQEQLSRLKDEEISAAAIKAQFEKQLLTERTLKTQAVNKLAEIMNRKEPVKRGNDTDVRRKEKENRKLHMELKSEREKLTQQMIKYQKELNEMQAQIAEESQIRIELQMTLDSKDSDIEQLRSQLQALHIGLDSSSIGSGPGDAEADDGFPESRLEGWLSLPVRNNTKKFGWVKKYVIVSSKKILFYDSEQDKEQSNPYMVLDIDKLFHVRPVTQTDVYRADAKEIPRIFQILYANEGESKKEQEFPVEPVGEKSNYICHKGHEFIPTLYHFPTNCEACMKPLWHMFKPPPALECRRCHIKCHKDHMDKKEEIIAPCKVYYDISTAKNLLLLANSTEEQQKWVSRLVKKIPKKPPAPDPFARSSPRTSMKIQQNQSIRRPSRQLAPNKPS

Row | Structure (SMILES) | inhibition at 1 µM [%] | inhibition at 10 µM [%]
1 | COC[C@H]1CN[C@H](C)CN1CC(=O)N1CC(C)(C)c2ncc(Cc3ccccc3OCCOCCOCCOCCOCCOCCOCCN[C@H](Cc3cccc(F)c3)C(=O)Nc3ccc(-c4ccncc4)cc3)cc21 [Example 76, (R)-2-(3-Fluorobenzyl)-23-(2-((1-(2-((2R,5R)-2-(methoxymethyl)-5-methylpiperazin-1-yl)acetyl)-3,3-dimethyl-2,3-dihydro-1H-pyrrolo[3,2-b]pyridin-6-yl)methyl)phenoxy)-N-(4-(pyridin-4-yl)phenyl)-6,9,12,15,18,21-hexaoxa-3-azatricosanamide] | < 25 | 50 to 75
2 | COC[C@H]1CN[C@H](C)CN1CC(=O)N1CC(C)(C)c2ncc(Cc3cccc(OCCOCCOCCOCCOCCOCCOCCNC[C@@H](C(=O)Nc4ccc5cnccc5c4)c4ccccc4)c3)cc21 [Example 62, (S)-N-(Isoquinolin-6-yl)-1-(3-((1-(2-((2R,5R)-2-(methoxymethyl)-5-methylpiperazin-1-yl)acetyl)-3,3-dimethyl-2,3-dihydro-1H-pyrrolo[3,2-b]pyridin-6-yl)methyl)phenoxy)-23-phenyl-3,6,9,12,15,18-hexaoxa-21-azatetracosan-24-amide] | 25 to 50 | ≥ 75
3 | COC[C@H]1CN[C@H](C)CN1CC(=O)N1CC(C)(C)c2ncc(Cc3cccc(OCCOCCOCCOCCOCCOCCN[C@H](C)c4ccc(C(=O)Nc5ccncc5)cc4)c3)cc21 [Example 47, 4-((R)-20-(3-((1-(2-((2R,5R)-2-(Methoxymethyl)-5-methylpiperazin-1-yl)acetyl)-3,3-dimethyl-2,3-dihydro-1H-pyrrolo[3,2-b]pyridin-6-yl)methyl)phenoxy)-6,9,12,15,18-pentaoxa-3-azaicosan-2-yl)-N-(pyridin-4-yl)benzamide] | 50 to 75 | ≥ 75
4 | C[C@@H]1CN(CC(=O)N2CC(C)(C)c3ncc(Cc4ccc(F)cc4)cc32)[C@@H](CN(C)CCOCCOCCOCCOCCN[C@H](Cc2cccc(F)c2)C(=O)Nc2ccc(-c3ccncc3)cc2)CN1 [Example 11, (R)-18-(3-Fluorobenzyl)-1-((2R,5R)-1-(2-(6-(4-fluorobenzyl)-3,3-dimethyl-2,3-dihydro-1H-pyrrolo[3,2-b]pyridin-1-yl)-2-oxoethyl)-5-methylpiperazin-2-yl)-2-methyl-N-(4-(pyridin-4-yl)phenyl)-5,8,11,14-tetraoxa-2,17-diazanonadecan-19-amide] | 50 to 75 | ≥ 75
5 | COC[C@H]1CN[C@H](C)CN1CC(=O)N1CC(C)(C)c2ncc(Cc3ccccc3OCCOCCOCCOCCOCCOCCN[C@H](Cc3cccc(F)c3)C(=O)Nc3ccc(-c4ccncc4)cc3)cc21 [Example 75, (R)-2-(3-Fluorobenzyl)-20-(2-((1-(2-((2R,5R)-2-(methoxymethyl)-5-methylpiperazin-1-yl)acetyl)-3,3-dimethyl-2,3-dihydro-1H-pyrrolo[3,2-b]pyridin-6-yl)methyl)phenoxy)-N-(4-(pyridin-4-yl)phenyl)-6,9,12,15,18-pentaoxa-3-azaicosanamide] | < 25 | 50 to 75
6 | C[C@@H]1CN(CC(=O)N2CC(C)(C)c3ncc(Cc4ccc(F)cc4)cc32)[C@@H](CN(C)CCOCCOCCOCCOCCOCCOCCOCCN[C@H](Cc2cccc(F)c2)C(=O)Nc2ccc(-c3ccncc3)cc2)CN1 [Example 14, (R)-27-(3-Fluorobenzyl)-1-((2R,5R)-1-(2-(6-(4-fluorobenzyl)-3,3-dimethyl-2,3-dihydro-1H-pyrrolo[3,2-b]pyridin-1-yl)-2-oxoethyl)-5-methylpiperazin-2-yl)-2-methyl-N-(4-(pyridin-4-yl)phenyl)-5,8,11,14,17,20,23-heptaoxa-2,26-diazaoctacosan-28-amide] | 25 to 50 | ≥ 75
7 | COC[C@H]1CN[C@H](C)CN1CC(=O)N1CC(C)(C)c2ncc(Cc3cccc(OCCOCCOCCOCCOCCOCCNC[C@@H](C(=O)Nc4ccc5cnccc5c4)c4ccccc4)c3)cc21 [Example 61, (S)-N-(Isoquinolin-6-yl)-1-(3-((1-(2-((2R,5R)-2-(methoxymethyl)-5-methylpiperazin-1-yl)acetyl)-3,3-dimethyl-2,3-dihydro-1H-pyrrolo[3,2-b]pyridin-6-yl)methyl)phenoxy)-20-phenyl-3,6,9,12,15-pentaoxa-18-azahenicosan-21-amide] | 50 to 75 | ≥ 75
8 | COC[C@H]1CN[C@H](C)CN1CC(=O)N1CC(C)(C)c2nc(CN(C)CCOCCOCCNC[C@@H](C(=O)Nc3ccc4cnccc4c3)c3ccccc3)c(Cc3ccc(F)cc3)cc21 [Example 37, (S)-1-(6-(4-Fluorobenzyl)-1-(2-((2R,5R)-2-(methoxymethyl)-5-methylpiperazin-1-yl)acetyl)-3,3-dimethyl-2,3-dihydro-1H-pyrrolo[3,2-b]pyridin-5-yl)-N-(isoquinolin-6-yl)-2-methyl-13-phenyl-5,8-dioxa-2,11-diazatetradecan-14-amide] | < 25 | ≥ 75
9 | COC[C@H]1CN[C@H](C)CN1CC(=O)N1CC(C)(C)c2ncc(Cc3cccc(OCCOCCOCCNC[C@@H](C(=O)Nc4ccc5cnccc5c4)c4ccccc4)c3)cc21 [Example 58, (S)-N-(Isoquinolin-6-yl)-3-((2-(2-(2-(3-((1-(2-((2R,5R)-2-(methoxymethyl)-5-methylpiperazin-1-yl)acetyl)-3,3-dimethyl-2,3-dihydro-1H-pyrrolo[3,2-b]pyridin-6-yl)methyl)phenoxy)ethoxy)ethoxy)ethyl)amino)-2-phenylpropanamide] | 50 to 75 | ≥ 75
10 | COC[C@H]1CN[C@H](C)CN1CC(=O)N1CC(C)(C)c2ncc(Cc3cccc(OCCOCCN[C@H](Cc4cccc(F)c4)C(=O)Nc4ccc(-c5ccncc5)cc4)c3)cc21 [Example 50, (R)-3-(3-Fluorophenyl)-2-((2-(2-(3-((1-(2-((2R,5R)-2-(methoxymethyl)-5-methylpiperazin-1-yl)acetyl)-3,3-dimethyl-2,3-dihydro-1H-pyrrolo[3,2-b]pyridin-6-yl)methyl)phenoxy)ethoxy)ethyl)amino)-N-(4-(pyridin-4-yl)phenyl)propanamide] | 25 to 50 | ≥ 75
11 | COC[C@H]1CN[C@H](C)CN1CC(=O)N1CC(C)(C)c2ncc(Cc3ccccc3OCCOCCOCCN[C@H](Cc3cccc(F)c3)C(=O)Nc3ccc(-c4ccncc4)cc3)cc21 [Example 72, (R)-3-(3-Fluorophenyl)-2-((2-(2-(2-(2-((1-(2-((2R,5R)-2-(methoxymethyl)-5-methylpiperazin-1-yl)acetyl)-3,3-dimethyl-2,3-dihydro-1H-pyrrolo[3,2-b]pyridin-6-yl)methyl)phenoxy)ethoxy)ethoxy)ethyl)amino)-N-(4-(pyridin-4-yl)phenyl)propanamide] | < 25 | ≥ 75
12 | COC[C@H]1CN[C@H](C)CN1CC(=O)N1CC(C)(C)c2ncc(Cc3ccccc3OCCOCCOCCOCCOCCOCCOCCOCCNC[C@@H](C(=O)Nc3ccc4cnccc4c3)c3ccccc3)cc21 [Example 84, (S)-N-(Isoquinolin-6-yl)-1-(2-((1-(2-((2R,5R)-2-(methoxymethyl)-5-methylpiperazin-1-yl)acetyl)-3,3-dimethyl-2,3-dihydro-1H-pyrrolo[3,2-b]pyridin-6-yl)methyl)phenoxy)-26-phenyl-3,6,9,12,15,18,21-heptaoxa-24-azaheptacosan-27-amide] | 50 to 75 | 25 to 50
